Here are results for 1 molecule from patent publication US20160206629A1, “TOPICAL COMPOSITION COMPRISING A FILM-FORMING POLYMER FOR DELIVERING AN ACTIVE INGREDIENT TO SKIN” (LEO Pharma A/S, priority 2012, published 2016).

A short description of the data set: In vitro skin penetration, full thickness pig ear skin, Franz-type diffusion cells, 3H-BMV. Type of data set: in vitro ADME. Here is the method:
To investigate the skin penetration and permeation of BMV from compositions according to example 1, a skin diffusion experiment was conducted. Full thickness skin from pig ears was used in the study. The skin was cleaned and kept frozen at −18° C. before use. On the day prior to the experiment the skin was placed in a refrigerator (5±3° C.) for slow defrosting.
Static Franz-type diffusion cells with an available diffusion area of 3.14 cm^2 and receptor volumes ranging from 8.6 to 11.1 ml were used in substantially the manner described by T. J. Franz, “The finite dose technique as a valid in vitro model for the study of percutaneous absorption in man”, in Current Problems in Dermatology, 1978, J. W. H. Mall (Ed.), Karger, Basel, pp. 58-68. The specific volume was measured and registered for each cell. A magnetic bar was placed in the receptor compartment of each cell. After mounting the skin, physiological saline (35° C.) was filled into each receptor chamber for hydration of the skin. The cells were placed in a thermally controlled water bath which was placed on a magnetic stirrer set at 300 rpm. […]
Samples (1 ml) of the receptor fluid remaining in the diffusion cell were collected and analysed.
The concentration of ^3H-BMV in the samples were determined by liquid scintillation counting.

`CCCCC(=O)O[C@]1(C(=O)CO)[C@@H](C)C[C@H]2[C@@H]3CCC4=CC(=O)C=C[C@]4(C)[C@@]3(F)[C@@H](O)C[C@@]21C` [BMV, betamethasone valerate]: the “permeation of BMV into the receptor medium” value (receptor medium acetate buffer pH 5.5 with 1% methyl-β-cyclodextrin) is listed as “None”. Further, for the setting “stratum corneum versus epidermis, FIG. 3”, the “accumulation of BMV in skin layers” value is “mainly accumulated in the stratum corneum”.
